Values of other authors, collected in patent US20240197753A1, “PHARMACEUTICAL COMPOSITION FOR IMPROVING CARDIAC FUNCTION” (OSAKA UNIVERSITY, priority 2021, published 2024).

no-observed-effect level (blood ONO-1301 concentration) (oral dosing phase I study): 15.61 ng/mL
Structure (SMILES): O=C(O)COc1cccc2c1CCC=C2CCO/N=C(\c1ccccc1)c1cccnc1 [ONO-1301, ({5-[2-({[(1E)-phenyl(pyridin-3-yl)methylene]amino}oxy)ethyl]-7,8-dihydronaphthalen-1-yl}oxy)acetic acid]
no-observed-adverse-effect level (blood ONO-1301 concentration) (oral dosing phase I study): 23.69 ng/mL | Safety margin (efficacy: platelet aggregation inhibition; side effects: epigastric pain, fever, cold sweat, diarrhea, etc.) (oral, Phase I clinical trials): narrow
